This note sets out measurements from US11602514B2, “Medicament having anti-inflammatory bowel disease function, and preparation method therefor and application thereof” (SUZHOU PHARMAVAN CO., LTD, priority 2018, dated 2023).

“Also recorded” adds a separate entry of the source.

This assay concerns PGE2 secreted by mouse macrophages RAW264.7 induced by LPS. As to the kind of experiment: PGE2 secreted by LPS-induced RAW264.7 macrophages (ELISA). It is filed as cell-based. The note with it: for PGE2: LPS alone 1154.90 ± 84.20, control −407.37 ± 57.67. As for the experimental part: Effects of myricanol derivatives on the expression of inflammatory factors such as IL-6, TNF-α, PEG2 secreted by a mouse macrophage cell strain RAW 264.7 induced by bacterial lipopolysaccharide (hereinafter referred to as LPS) stimulus: A pre-prepared cell suspension was inoculated in a 96-well plate at 15000 cells/well and 100 μl/well and cultured overnight in an incubator with 5% CO2 at 37° C. At 80% cell confluence, the original culture medium was discarded, and each well was added with 100 μl of prepared drug solution to be tested with a different concentration, cultured for 1 h, and then added with a LPS solution, where the final concentration of LPS in the culture system was 100 ng/mL. Each concentration was set with 3 parallel wells, and a cell control group (no drug and no solvent) and a blank medium control group (no cells, a well for zero adjustment) were set. They were cultured for another 24 h. Cell culture supernatants were aspirated, and an R&D ELISA detection kit (M6000B; MTA00B; VAL601) was used for detecting the expression of the inflammatory factors such as IL-6, TNF-α, and PEG2 in each group. Cell proteins were collected, and a […] method was used for detecting COX-2 protein expression in each group.

Regarding `COc1c2cc(c(O)c1OC)CCCCC(OS(=O)(=O)O)CCc1ccc(O)c-2c1` (stereo not drawn) [compound H, 11-sulfonyloxy myricanol], the “dose dependence of the activity for inhibiting PGE2” value (FIG. 9) is reported as “well dose-dependent”. Besides, the “inhibition of PGE2 secreted by RAW264.7 induced by LPS” value (LPS 100 ng/mL, 24 h, FIGS. 7 and 9) was “significant effect of inhibiting PGE2; also recorded: strong ability to inhibit”. In addition, the PGE2 is 804.30 ± 18.46 pg/mL (LPS + 10 μM); 604.66 ± 97.52 pg/mL (LPS + 20 μM); 448.16 ± 55.26 pg/mL (LPS + 30 μM); 289.30 ± 109.41 pg/mL (LPS + 40 μM); -82.01 ± 357.30 pg/mL (LPS + 60 μM); -338.14 ± 138.40 pg/mL (LPS + 80 μM). In addition, the “PGE2 inhibition compared with myricanol” value (dose of 20 μM, FIG. 9) was “better inhabitation effect than myricanol”.
